{"source": "the supplement of paper PMC10307832", "experiment_in_all_cases": "relative viability (nuclei count vs DMSO), 5 days (fraction); higher = more cells survive", "key": {"[1]": {"test_system": "NCI-H1355", "method_in_brief": "(§1)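 Relative viability equals treated-well nuclei counts divided by vehicle-well nuclei counts. Counts came from 4× images of lung cancer cell lines grown in 1536-well plates for 5 days after pin-tool dosing on the day after seeding. Dosing used one drug alone or a fixed anchor-drug dose plus five library-drug doses (not always all listed) in √10 steps, and values are medians of duplicate plates.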"}, "[2]": {"test_system": "HCC-366", "method_in_brief": "as §1"}, "[3]": {"test_system": "NCI-H1666", "method_in_brief": "as §1"}, "[4]": {"test_system": "NCI-H1734", "method_in_brief": "as §1"}, "[5]": {"test_system": "NCI-H2009", "method_in_brief": "as §1"}, "[6]": {"test_system": "LK-2", "method_in_brief": "as §1"}, "[7]": {"test_system": "NCI-H838", "method_in_brief": "as §1"}, "[8]": {"test_system": "IA-LM", "method_in_brief": "as §1"}, "[9]": {"test_system": "HCC-78", "method_in_brief": "as §1"}, "[10]": {"test_system": "NCI-H520", "method_in_brief": "as §1"}, "[11]": {"test_system": "NCI-H358", "method_in_brief": "as §1"}, "[12]": {"test_system": "NCI-H1703", "method_in_brief": "as §1"}, "[13]": {"test_system": "ABC-1", "method_in_brief": "as §1"}, "[14]": {"test_system": "NCI-H727", "method_in_brief": "as §1"}, "[15]": {"test_system": "NCI-H2405", "method_in_brief": "as §1"}, "[16]": {"test_system": "NCI-H1755", "method_in_brief": "as §1"}, "[17]": {"test_system": "NCI-H1650", "method_in_brief": "as §1"}, "[18]": {"test_system": "UMC-11", "method_in_brief": "as §1"}, "[19]": {"test_system": "SW 1573", "method_in_brief": "as §1"}, "[20]": {"test_system": "BEN", "method_in_brief": "as §1"}, "[21]": {"test_system": "NCI-H2228", "method_in_brief": "as §1"}, "[22]": {"test_system": "LOU-NH91", "method_in_brief": "as §1"}, "[23]": {"test_system": "NCI-H2347", "method_in_brief": "as §1"}, "[24]": {"test_system": "201T", "method_in_brief": "as §1"}}, "data": [{"compound": "CCCCCCCCCCCC1=C(O)C(=O)C=C(O)C1=O", "note": "[Embelin] + COc1cc2c(Oc3ccc(NC(=O)C4(C(=O)Nc5ccc(F)cc5)CC4)cc3F)ccnc2cc1OCCCN1CCOCC1 [Foretinib] (partner 0.25 µM)", "values": [{"measurement": "relative viability", "setting": "[1]; first compound 0.08 µM", "value": 0.969}, {"measurement": "relative viability", "setting": "[1]; first compound 0.8 µM", "value": 1.07}, {"measurement": "relative viability", "setting": "[1]; first compound 2.53 µM", "value": 1.21}, {"measurement": "relative viability", "setting": "[1]; first compound 8 µM", "value": 1.03}, {"measurement": "relative viability", "setting": "[2]; first compound 0.08 µM", "value": 0.906}, {"measurement": "relative viability", "setting": "[2]; first compound 0.8 µM", "value": 1.03}, {"measurement": "relative viability", "setting": "[2]; first compound 2.53 µM", "value": 0.94}, {"measurement": "relative viability", "setting": "[2]; first compound 8 µM", "value": 0.99}, {"measurement": "relative viability", "setting": "[3]; first compound 0.08 µM", "value": 0.943}, {"measurement": "relative viability", "setting": "[3]; first compound 0.8 µM", "value": 1.07}, {"measurement": "relative viability", "setting": "[3]; first compound 2.53 µM", "value": 0.978}, {"measurement": "relative viability", "setting": "[3]; first compound 8 µM", "value": 0.941}, {"measurement": "relative viability", "setting": "[4]; first compound 0.08 µM", "value": 0.899}, {"measurement": "relative viability", "setting": "[4]; first compound 0.8 µM", "value": 0.926}, {"measurement": "relative viability", "setting": "[4]; first compound 2.53 µM", "value": 0.989}, {"measurement": "relative viability", "setting": "[4]; first compound 8 µM", "value": 0.924}, {"measurement": "relative viability", "setting": "[5]; first compound 0.08 µM", "value": 1.24}, {"measurement": "relative viability", "setting": "[5]; first compound 0.8 µM", "value": 1.33}, {"measurement": "relative viability", "setting": "[5]; first compound 2.53 µM", "value": 1.24}, {"measurement": "relative viability", "setting": "[5]; first compound 8 µM", "value": 1.17}, {"measurement": "relative viability", "setting": "[6]; first compound 0.08 µM", "value": 1.13}, {"measurement": "relative viability", "setting": "[6]; first compound 0.8 µM", "value": 1.7}, {"measurement": "relative viability", "setting": "[6]; first compound 2.53 µM", "value": 1.47}, {"measurement": "relative viability", "setting": "[6]; first compound 8 µM", "value": 1.79}, {"measurement": "relative viability", "setting": "[7]; first compound 0.08 µM", "value": 1.08}, {"measurement": "relative viability", "setting": "[7]; first compound 0.8 µM", "value": 1.11}, {"measurement": "relative viability", "setting": "[7]; first compound 2.53 µM", "value": 1.06}, {"measurement": "relative viability", "setting": "[7]; first compound 8 µM", "value": 1.09}, {"measurement": "relative viability", "setting": "[8]; first compound 0.08 µM", "value": 1.05}, {"measurement": "relative viability", "setting": "[8]; first compound 0.8 µM", "value": 1.17}, {"measurement": "relative viability", "setting": "[8]; first compound 2.53 µM", "value": 1.16}, {"measurement": "relative viability", "setting": "[8]; first compound 8 µM", "value": 1.16}, {"measurement": "relative viability", "setting": "[9]; first compound 0.08 µM", "value": 0.544}, {"measurement": "relative viability", "setting": "[9]; first compound 0.8 µM", "value": 0.601}, {"measurement": "relative viability", "setting": "[9]; first compound 2.53 µM", "value": 0.65}, {"measurement": "relative viability", "setting": "[9]; first compound 8 µM", "value": 0.559}, {"measurement": "relative viability", "setting": "[10]; first compound 0.08 µM", "value": 0.891}, {"measurement": "relative viability", "setting": "[10]; first compound 0.8 µM", "value": 0.891}, {"measurement": "relative viability", "setting": "[10]; first compound 2.53 µM", "value": 0.878}, {"measurement": "relative viability", "setting": "[10]; first compound 8 µM", "value": 0.807}, {"measurement": "relative viability", "setting": "[11]; first compound 0.08 µM", "value": 0.753}, {"measurement": "relative viability", "setting": "[11]; first compound 0.8 µM", "value": 0.81}, {"measurement": "relative viability", "setting": "[11]; first compound 2.53 µM", "value": 0.976}, {"measurement": "relative viability", "setting": "[11]; first compound 8 µM", "value": 0.869}, {"measurement": "relative viability", "setting": "[12]; first compound 0.08 µM", "value": 0.413}, {"measurement": "relative viability", "setting": "[12]; first compound 0.8 µM", "value": 0.404}, {"measurement": "relative viability", "setting": "[12]; first compound 2.53 µM", "value": 0.392}, {"measurement": "relative viability", "setting": "[12]; first compound 8 µM", "value": 0.314}, {"measurement": "relative viability", "setting": "[13]; first compound 0.08 µM", "value": 1.17}, {"measurement": "relative viability", "setting": "[13]; first compound 0.8 µM", "value": 1.12}, {"measurement": "relative viability", "setting": "[13]; first compound 2.53 µM", "value": 1.05}, {"measurement": "relative viability", "setting": "[13]; first compound 8 µM", "value": 1.08}, {"measurement": "relative viability", "setting": "[14]; first compound 0.08 µM", "value": 0.793}, {"measurement": "relative viability", "setting": "[14]; first compound 0.8 µM", "value": 1.13}, {"measurement": "relative viability", "setting": "[14]; first compound 2.53 µM", "value": 1.11}, {"measurement": "relative viability", "setting": "[14]; first compound 8 µM", "value": 0.761}, {"measurement": "relative viability", "setting": "[15]; first compound 0.08 µM", "value": 1.15}, {"measurement": "relative viability", "setting": "[15]; first compound 0.8 µM", "value": 1.14}, {"measurement": "relative viability", "setting": "[15]; first compound 2.53 µM", "value": 1.11}, {"measurement": "relative viability", "setting": "[15]; first compound 8 µM", "value": 1.06}, {"measurement": "relative viability", "setting": "[16]; first compound 0.08 µM", "value": 0.912}, {"measurement": "relative viability", "setting": "[16]; first compound 0.8 µM", "value": 0.948}, {"measurement": "relative viability", "setting": "[16]; first compound 2.53 µM", "value": 0.927}, {"measurement": "relative viability", "setting": "[16]; first compound 8 µM", "value": 0.906}, {"measurement": "relative viability", "setting": "[17]; first compound 0.08 µM", "value": 1.09}, {"measurement": "relative viability", "setting": "[17]; first compound 0.8 µM", "value": 1.05}, {"measurement": "relative viability", "setting": "[17]; first compound 2.53 µM", "value": 1.11}, {"measurement": "relative viability", "setting": "[17]; first compound 8 µM", "value": 0.968}, {"measurement": "relative viability", "setting": "[18]; first compound 0.08 µM", "value": 1.06}, {"measurement": "relative viability", "setting": "[18]; first compound 0.8 µM", "value": 1.14}, {"measurement": "relative viability", "setting": "[18]; first compound 2.53 µM", "value": 1.21}, {"measurement": "relative viability", "setting": "[18]; first compound 8 µM", "value": 1.28}, {"measurement": "relative viability", "setting": "[19]; first compound 0.08 µM", "value": 0.974}, {"measurement": "relative viability", "setting": "[19]; first compound 0.8 µM", "value": 0.998}, {"measurement": "relative viability", "setting": "[19]; first compound 2.53 µM", "value": 1.08}, {"measurement": "relative viability", "setting": "[19]; first compound 8 µM", "value": 0.948}, {"measurement": "relative viability", "setting": "[20]; first compound 0.08 µM", "value": 0.681}, {"measurement": "relative viability", "setting": "[20]; first compound 0.8 µM", "value": 0.954}, {"measurement": "relative viability", "setting": "[20]; first compound 2.53 µM", "value": 0.677}, {"measurement": "relative viability", "setting": "[20]; first compound 8 µM", "value": 0.867}, {"measurement": "relative viability", "setting": "[21]; first compound 0.08 µM", "value": 1.08}, {"measurement": "relative viability", "setting": "[21]; first compound 0.8 µM", "value": 0.868}, {"measurement": "relative viability", "setting": "[21]; first compound 2.53 µM", "value": 1.32}, {"measurement": "relative viability", "setting": "[21]; first compound 8 µM", "value": 0.996}, {"measurement": "relative viability", "setting": "[22]; first compound 0.08 µM", "value": 0.968}, {"measurement": "relative viability", "setting": "[22]; first compound 0.8 µM", "value": 1.08}, {"measurement": "relative viability", "setting": "[22]; first compound 2.53 µM", "value": 1.09}, {"measurement": "relative viability", "setting": "[22]; first compound 8 µM", "value": 0.978}, {"measurement": "relative viability", "setting": "[23]; first compound 0.08 µM", "value": 0.981}, {"measurement": "relative viability", "setting": "[23]; first compound 0.8 µM", "value": 0.837}, {"measurement": "relative viability", "setting": "[23]; first compound 2.53 µM", "value": 1.21}, {"measurement": "relative viability", "setting": "[23]; first compound 8 µM", "value": 0.942}, {"measurement": "relative viability", "setting": "[24]; first compound 0.08 µM", "value": 1.14}, {"measurement": "relative viability", "setting": "[24]; first compound 0.8 µM", "value": 1.15}, {"measurement": "relative viability", "setting": "[24]; first compound 2.53 µM", "value": 1.18}, {"measurement": "relative viability", "setting": "[24]; first compound 8 µM", "value": 0.961}]}]}
